The source of these data is article PMC9617636 (Antiviral Research, 2022).

Where two headings read alike, the source gives them in different places.

Data set [1] deals with SARS-CoV-2. Kind of data set: Antiviral plaque assay in Vero-E6 cells. It counts as cell-based.
The subject of another data set is Vero-E6 cells. The note with it: listed as of SARS-CoV-2 B.1.1.7 (Alpha).
The next data set concerns B.1.1.7 SARS-CoV-2. Kind of data set: Antiviral assay in Calu3 cells. It counts as cell-based.
The subject of the next data set is SARS-CoV-2 nucleocapsid. It counts as cell-based.
In the next data set the test system is SARS-CoV-2 viral RNA. It counts as cell-based.
Data set [2] is described as follows: in vitro. The following applies: human.
The nature of data set [3]: in vitro. The following applies: African green monkey.
The test system of data set [4] is −1 PRF signal of SARS-CoV-2. It counts as cell-based.
The next data set deals with Mucilair tissues. It counts as cell-based, human. The note with it: MTS assay at 96hpi, 30 μg/tissue.
A further data set concerns Influenza A virus (H1N1). Kind of data set: Antiviral activity against Influenza A virus. It counts as cell-based, Influenza virus A/Netherlands/602/2009.
For a further data set, the system named is A549 cells. It counts as cell-based. The following applies: 600 μM.
Another data set relates to HCoV-229e. The data set can be described thus: microbe, parasite or virus in culture. It counts as cell-based. The following applies: Human coronavirus 229E.
Data set [5] concerns SARS-CoV-2. It counts as cell-based.
Another data set relates to SARS-CoV-2 GFP. It counts as cell-based.
The nature of data set [6]: in vitro. The following applies: dog.
Data set [7] is described as follows: in vitro. The note with it: human. This is another data set of the same source.
Where [8] appears, read: Severe acute respiratory syndrome coronavirus 2, Vero C1008, read-out: EC50 (95% CI).
Where [9] appears, read: Severe acute respiratory syndrome coronavirus 2, Vero C1008, read-out: EC90 (95% CI), SARS-CoV-2 B.1.1.7 (Alpha), Vero-E6.
[10] abbreviates: CC50, row of SARS-CoV-2 B.1.1.7 (Alpha).
Where [11] appears, read: Severe acute respiratory syndrome coronavirus 2, Calu-3, read-out: EC50 (95% CI).

Take Sotrovimab: the EC50 with SARS-CoV-2 [1] (read-out: EC50 (95% CI)) was 0.00013 µM; with B.1.1.7 SARS-CoV-2 (read-out: EC50 (95% CI)) it was 0.0041 µM. Moreover, in the data set with SARS-CoV-2 [1] (read-out: EC90 (95% CI), SARS-CoV-2 B.1.1.7 (Alpha), Vero-E6), the EC90 stood at 0.0042 µM. Further, the CC50 with Calu3 cells and in the data set with Vero-E6 cells was more than 0.68 µM each time.

`CCNCC1CCN(c2c(F)cc3c(=O)c(C(=O)O)cn(CC)c3c2F)C1` (stereo not shown) [Merafloxacin]: the “viral protein production (nucleocapsid over alpha tubulin)” value with SARS-CoV-2 nucleocapsid is “decrease in viral protein production”. In addition, in the data set with SARS-CoV-2 viral RNA, the “viral RNA replication” value was “inhibition of viral RNA replication”. Besides, the EC50 in the data set on SARS-CoV-2 [1] (setting [8]) is 23.7 µM; in the data set on B.1.1.7 SARS-CoV-2 (setting [11]), 21.8 µM. Moreover, the EC90 in the data set with SARS-CoV-2 [1] (setting [9]) amounted to 116 µM. Also, the CC50 in the data set “in vitro [2]” and in “in vitro [3]” (setting [10]) was more than 100 µM in each case. Moreover, in data set [4], the “−1 PRF efficiency” value is “reduction in the −1 PRF efficiency”.

Regarding `CN[C@@H]1[C@@H](O)[C@@H](O[C@@H]2[C@@H](O)[C@H](O[C@H]3O[C@H]([C@@H](C)O)[C@@H](O)[C@H](O)[C@H]3N)[C@@H](N)C[C@H]2N)OC[C@]1(C)O` [Geneticin], the “viral protein production (nucleocapsid over alpha tubulin)” value in the data set on SARS-CoV-2 nucleocapsid is given as “decrease in viral protein production”. For the same molecule, the “viability of the tissues” value in the data set on Mucilair tissues is on record as “without a decrease in viability”. Besides, the “viral RNA replication” value in the data set with SARS-CoV-2 viral RNA is on record as “inhibition of viral RNA replication”. Further, the EC50 was determined as 47.2 µM in the data set with SARS-CoV-2 [1] (setting [8]); 31.6 µM in the data set with SARS-CoV-2 [1] (Severe acute respiratory syndrome coronavirus 2, Vero C1008, read-out: EC50 (95% CI), SARS-CoV-2 B.1.160, Vero-E6); 102 µM in the data set on SARS-CoV-2 [1] (Severe acute respiratory syndrome coronavirus 2, Vero C1008, read-out: EC50 (95% CI), SARS-CoV-2 B.1.177, Vero-E6); 42.4 µM in the data set with SARS-CoV-2 [1] (Severe acute respiratory syndrome coronavirus 2, Vero C1008, read-out: EC50 (95% CI), SARS-CoV-2 B.1.258, Vero-E6); 32.8 µM in the data set on SARS-CoV-2 [1] (Severe acute respiratory syndrome coronavirus 2, Vero C1008, read-out: EC50 (95% CI), SARS-CoV-2 B.1.617.2 (Delta), Vero-E6); 25.7 µM in the data set with SARS-CoV-2 [1] (Severe acute respiratory syndrome coronavirus 2, Vero C1008, read-out: EC50 (95% CI), SARS-CoV-2 BA.1 (Omicron), Vero-E6). Also, the EC50 in the data set on Influenza A virus (H1N1) (read-out: EC50 (95% CI)) was more than 600 µM; in the data set on HCoV-229e (Huh-7, read-out: EC50 (95% CI)), 7.21 µM; in the data set on B.1.1.7 SARS-CoV-2 (setting [11]), 164 µM. Also, the EC90 came to 245 µM in the data set with SARS-CoV-2 [1] (setting [9]); 150 µM with SARS-CoV-2 [1] (Severe acute respiratory syndrome coronavirus 2, Vero C1008, read-out: EC90 (95% CI), SARS-CoV-2 B.1.160, Vero-E6); 407 µM in the data set with SARS-CoV-2 [1] (Severe acute respiratory syndrome coronavirus 2, Vero C1008, read-out: EC90 (95% CI), SARS-CoV-2 B.1.177, Vero-E6); 163 µM in the data set on SARS-CoV-2 [1] (Severe acute respiratory syndrome coronavirus 2, Vero C1008, read-out: EC90 (95% CI), SARS-CoV-2 B.1.258, Vero-E6); 542 µM in the data set with SARS-CoV-2 [1] (Severe acute respiratory syndrome coronavirus 2, Vero C1008, read-out: EC90 (95% CI), SARS-CoV-2 B.1.351 (Beta), Vero-E6); 201 µM in the data set on SARS-CoV-2 [1] (Severe acute respiratory syndrome coronavirus 2, Vero C1008, read-out: EC90 (95% CI), SARS-CoV-2 B.1.617.2 (Delta), Vero-E6). Besides, the EC90 came out at 155 µM with SARS-CoV-2 [1] (Severe acute respiratory syndrome coronavirus 2, Vero C1008, read-out: EC90 (95% CI), SARS-CoV-2 BA.1 (Omicron), Vero-E6) and 23.9 µM with HCoV-229e (Huh-7, read-out: EC90 (95% CI)). Also, the “antiviral activity against Influenza A virus (H1N1)” value in the data set on Influenza A virus (H1N1) (unrelated virus) is “lack of activity”. Also, the “protein synthesis in the cell” value in the data set with A549 cells was “not impaired”. In addition, the CC50 was more than 600 µM in the data set “in vitro [2]”; 3950 µM in “in vitro [3]” (setting [10]); 3950 µM in “in vitro [3]” (CC50, row of SARS-CoV-2 B.1.351 (Beta)); 3950 µM in “in vitro [3]” (CC50, row of SARS-CoV-2 B.1.617.2 (Delta)); 934 µM in “in vitro [3]” (CC50, row of SARS-CoV-2 BA.1 (Omicron)); 5840 µM in the data set “in vitro [6]”. Also, the CC50 in “in vitro [7]” came out at 684 µM. In the data set with SARS-CoV-2 [5], the “protection from viral infection (apical viral RNA and plaque titre)” value is reported as “significant protection from viral infections”. Besides, the “GFP intensity in the infected cells” value with SARS-CoV-2 GFP is listed as “significantly reduced”. Also, the “number of infected (GFP positive) cells” value in the data set with SARS-CoV-2 GFP is “marked reduction in the number of infected cells”. In addition, in data set [4], the “−1 PRF efficiency” value is on record as “reduction in the −1 PRF efficiency”.
